Measurements from patent US11123330B2, “Methods and compositions for inhibiting mutant EGFR signaling” (The Governing Council of the University of Toronto, priority 2017, dated 2021).
Entries after “also recorded” stand apart in the source; their conditions may differ. Values belong to the compound of their own block, whether it stands above or below them.

Assays:
[1] = tested on: reporter cells expressing MET bait; test: Viability of reporter cells expressing MET bait; type: cell-based
[2] = tested on: Ba/F3 cells expressing EGFR-ex19del-T790M-C797S; test: Ba/F3 cell viability (CellTiter-Glo), EGFR-ex19del-T790M-C797S; type: cell-based; conditions: for cell viability in combination with anti-EGFR antibody: with 68 nM Cetuximab or 140 nM Panitumumab
[3] = tested on: PC9 EGFR ex19del/T790M/C797S organoids; test: Organoid viability, PC9 EGFR ex19del/T790M/C797S organoids; type: cell-based; conditions: 72 hours with compound
[4] = tested on: Ba/F3 cells expressing EGFR-L858R-T790M-C797S; test: Ba/F3 cell viability (CellTiter-Glo), EGFR-L858R-T790M-C797S; type: cell-based; conditions: for cell viability in combination with anti-EGFR antibody: with 68 nM Cetuximab or 140 nM Panitumumab
[5] = tested on: PC9 EGFR ex19del/T790M/C797S cells; test: Caspase 3 and 7 activity, PC9 EGFR ex19del/T790M/C797S cells; type: cell-based
EGFR-WT = target: T1, EGFR-WT (Homo sapiens, UniProt P00533); test: MaMTH assay, EGFR-WT bait with Shc1 prey; type: cell-based; conditions: for Average Percent / WT > 50% Inhibition: EGFR-WT bait, Shc1 prey; for Average Percent: retest in triplicate, MaMTH signal remaining (low = inhibition); for interaction / complex formation with Shc1 (MaMTH, words): EGFR WT bait
T1 construct: change the phosphorylation status of full-length EGFR proteins in the context of living cells; expressed in transfected cells

CFBE cells = test: Caspase 3 and 7 activity, CFBE cells; type: cell-based
EGFR double mutants = test: In vitro kinase assay, EGFR double mutants; type: biochemical
[6] = tested on: EGFR and downstream signaling molecules in PC9 EGFR-ex19del-T790M-C797S cells; test: EGFR activation and downstream signaling in PC9 EGFR-ex19del-T790M-C797S cells; type: cell-based
[7] = tested on: EGFR and downstream signalling molecules in Ba/F3 EGFR-L858R-T790M-C797S cells; test: Western analysis of EGFR and downstream signalling, Ba/F3 EGFR-L858R-T790M-C797S; type: cell-based
wild-type EGFR = target: T2, wild-type EGFR (Homo sapiens, UniProt P00533); test: In vitro kinase assay, EGFR WT kinase domain; type: biochemical; conditions: up to 10 micromolar
T2 construct: recombinant proteins of the kinase domain of wild-type EGFR; purchased Reaction Biology Corporation

[8] = tested on: PC9 EGFR ex19del/T790M/C797S cells; test: Cell viability, PC9 EGFR ex19del/T790M/C797S cells; type: cell-based; conditions: for cell viability in combination with compound 5213777: with 50 nM of compound 5213777, 72 hours, compared to alone; for cell viability in combination with Panitumumab: with 10 ug/ml Panitumumab, 72 hours
EGFR-L858R-T790M-C797S = target: T3, EGFR-L858R-T790M-C797S (Homo sapiens, UniProt P00533, C797S/L858R/T790M); test: MaMTH / MaMTH-DS assay, EGFR-L858R-T790M-C797S bait with Shc1 prey; type: cell-based; conditions: retest in triplicate, MaMTH signal remaining (low = inhibition)
T3 construct: change the phosphorylation status of full-length EGFR proteins in the context of living cells; expressed in transfected cells

[9] = tested on: EGFR and downstream signalling molecules in Ba/F3 EGFR-ex19del-T790M-C797S cells; test: Western analysis of EGFR and downstream signalling, Ba/F3 EGFR-ex19del-T790M-C797S; type: cell-based
EGFR ex19del/T790M/C797S = EGFR ex19del/T790M/C797S (Homo sapiens, UniProt P00533, C797S/DEL746-750/T790M); test: In vitro kinase assay, EGFR ex19del/T790M/C797S kinase domain; type: biochemical
[10] = tested on: reporter cells expressing ALK bait; test: Viability of reporter cells expressing ALK bait; type: cell-based
AXL = target: T4, AXL (Homo sapiens, UniProt P30530); test: MaMTH-DS assay, AXL bait with Shc1 prey; type: cell-based
T4 construct: expressed in transfected cells
T4 sequence (P30530 26-894): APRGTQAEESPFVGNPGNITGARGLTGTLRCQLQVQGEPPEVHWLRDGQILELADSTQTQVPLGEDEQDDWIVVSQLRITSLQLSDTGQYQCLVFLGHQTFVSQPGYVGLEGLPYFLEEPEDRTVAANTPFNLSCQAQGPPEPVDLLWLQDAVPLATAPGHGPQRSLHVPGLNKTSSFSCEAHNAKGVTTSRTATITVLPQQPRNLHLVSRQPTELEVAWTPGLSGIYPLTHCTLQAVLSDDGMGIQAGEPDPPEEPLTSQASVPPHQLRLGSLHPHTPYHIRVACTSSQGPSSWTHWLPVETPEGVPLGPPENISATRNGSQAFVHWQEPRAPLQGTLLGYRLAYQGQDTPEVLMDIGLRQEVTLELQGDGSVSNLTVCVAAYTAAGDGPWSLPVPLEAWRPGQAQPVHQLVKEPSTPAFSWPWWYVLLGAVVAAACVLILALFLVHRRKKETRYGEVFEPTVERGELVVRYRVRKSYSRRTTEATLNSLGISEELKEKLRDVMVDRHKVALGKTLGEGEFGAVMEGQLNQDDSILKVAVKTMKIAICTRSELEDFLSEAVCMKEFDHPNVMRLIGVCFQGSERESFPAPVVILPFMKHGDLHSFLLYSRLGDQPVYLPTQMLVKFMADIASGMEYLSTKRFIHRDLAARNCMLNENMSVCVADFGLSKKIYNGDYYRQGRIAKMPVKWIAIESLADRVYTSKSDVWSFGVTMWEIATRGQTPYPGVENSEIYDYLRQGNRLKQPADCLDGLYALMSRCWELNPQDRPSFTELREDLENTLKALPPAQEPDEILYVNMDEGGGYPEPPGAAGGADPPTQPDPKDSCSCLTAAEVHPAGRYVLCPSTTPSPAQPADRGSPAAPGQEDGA
Text: To test MaMTH-DS sensitivity and its potential suitability for use in RTK drug screening, we selected several RTKs whose dysfunction is associated with cancer, and prepared stable MaMTH-DS ‘baits’ in our reporter cell lines. We then performed MaMTH-DS assays in the presence of transfected Shcl functional adapter protein ‘prey’ and small-molecule TKIs, including both control molecules and compounds known to specifically target the function of the corresponding RTKs. First, we examined the response of the RTK MET to the TKIs Crizotinib and Erlotinib using MaMTH-DS.
MaMTH assays. Cells stably expressing bait of interest (EGFR, MET, FGFR4, ALK, AXL) were seeded into 96-well TC-treated plates and grown at 37° C./5% CO2 overnight in DMEM/10% FBS/1% PS to ˜50-60% confluency. Cells were transfected with 50 ng/well of Nub-Shc1 ‘prey’ protein by calcium phosphate precipitation. Five hours after transfection, media was aspirated out and cells were treated with 100 uL of fresh media containing specific compound and 0.5 ug/ml of tetracyline to induce bait expression. After 24 hours, luciferase activity was measured by chemoluminescence.

[11] = tested on: reporter cells expressing AXL bait; test: Viability of reporter cells expressing AXL bait; type: cell-based
Method: (§1) Cell viability assays. MaMTH stable bait cells or Ba/F3 cells were seeded into 96 well plates at 10,000 cells per well. For MaMTH stable cells, the cells were treated the next day with each inhibitor in a dose-dependent manner in addition to 0.5 ug/mL tetracyline to induce bait expression. For BaF3 cells, the cells were treated with each compound the same day as seeding. After 72 hours of drug treatment, cell viability was measured using the CellTiter-Glo assay (Promega).

EGFR L858R/T790M = target: T5, EGFR L858R/T790M (Homo sapiens, UniProt P00533, L858R/T790M); test: MaMTH assay, EGFR L858R/T790M bait with Shc1 prey; type: cell-based
T5 construct: change the phosphorylation status of full-length EGFR proteins in the context of living cells; expressed in transfected cells

EGFR ex19del-T790M = test: In vitro kinase assay, EGFR ex19del-T790M; type: biochemical
MET = target: T6, MET (Homo sapiens, UniProt P08581); test: MaMTH-DS assay, MET bait with Shc1 prey; type: cell-based
T6 construct: expressed in transfected cells
T6 sequence (P08581 308-1390 limits assumed): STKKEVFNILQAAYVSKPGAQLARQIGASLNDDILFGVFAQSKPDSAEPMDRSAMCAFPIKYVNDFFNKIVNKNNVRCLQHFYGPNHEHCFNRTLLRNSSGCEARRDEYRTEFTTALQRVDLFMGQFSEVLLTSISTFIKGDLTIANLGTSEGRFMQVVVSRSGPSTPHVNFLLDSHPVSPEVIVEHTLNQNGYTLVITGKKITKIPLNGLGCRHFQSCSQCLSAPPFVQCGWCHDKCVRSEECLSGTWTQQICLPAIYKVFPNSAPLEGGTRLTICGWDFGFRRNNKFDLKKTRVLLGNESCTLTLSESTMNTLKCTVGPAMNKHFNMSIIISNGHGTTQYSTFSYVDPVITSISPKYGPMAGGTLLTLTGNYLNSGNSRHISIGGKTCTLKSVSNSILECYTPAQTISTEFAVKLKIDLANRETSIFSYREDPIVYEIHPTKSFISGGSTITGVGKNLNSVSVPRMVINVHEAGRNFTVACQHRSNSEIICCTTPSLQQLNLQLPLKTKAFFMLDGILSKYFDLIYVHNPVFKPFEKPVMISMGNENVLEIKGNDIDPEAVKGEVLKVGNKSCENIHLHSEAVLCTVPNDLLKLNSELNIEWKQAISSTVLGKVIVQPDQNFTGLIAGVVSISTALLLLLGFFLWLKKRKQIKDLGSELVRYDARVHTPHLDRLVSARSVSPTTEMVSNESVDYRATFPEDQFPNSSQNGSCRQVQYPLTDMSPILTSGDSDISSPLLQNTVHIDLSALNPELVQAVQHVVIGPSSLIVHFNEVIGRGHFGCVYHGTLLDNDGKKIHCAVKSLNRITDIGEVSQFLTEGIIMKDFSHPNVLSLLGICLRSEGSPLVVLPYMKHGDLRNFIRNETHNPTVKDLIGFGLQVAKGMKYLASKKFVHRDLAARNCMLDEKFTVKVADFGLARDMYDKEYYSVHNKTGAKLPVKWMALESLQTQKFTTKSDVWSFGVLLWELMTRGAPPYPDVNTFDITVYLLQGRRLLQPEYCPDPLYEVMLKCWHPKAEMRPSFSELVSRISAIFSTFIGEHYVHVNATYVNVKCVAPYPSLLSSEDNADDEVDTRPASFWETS
T6 sequence (P08581 25-307 partner limits assumed): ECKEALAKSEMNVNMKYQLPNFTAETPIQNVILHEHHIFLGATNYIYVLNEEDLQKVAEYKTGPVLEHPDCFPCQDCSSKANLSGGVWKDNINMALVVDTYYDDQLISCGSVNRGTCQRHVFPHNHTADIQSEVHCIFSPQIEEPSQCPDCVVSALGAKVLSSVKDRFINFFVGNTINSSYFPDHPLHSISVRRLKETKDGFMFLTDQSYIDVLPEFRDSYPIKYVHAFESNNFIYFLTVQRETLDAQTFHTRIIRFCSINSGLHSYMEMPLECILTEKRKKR

FGFR4 = target: T7, FGFR4 (Homo sapiens, UniProt P22455); test: MaMTH-DS assay, FGFR4 bait with Shc1 prey; type: cell-based
T7 construct: expressed in transfected cells
T7 sequence (P22455 22-802): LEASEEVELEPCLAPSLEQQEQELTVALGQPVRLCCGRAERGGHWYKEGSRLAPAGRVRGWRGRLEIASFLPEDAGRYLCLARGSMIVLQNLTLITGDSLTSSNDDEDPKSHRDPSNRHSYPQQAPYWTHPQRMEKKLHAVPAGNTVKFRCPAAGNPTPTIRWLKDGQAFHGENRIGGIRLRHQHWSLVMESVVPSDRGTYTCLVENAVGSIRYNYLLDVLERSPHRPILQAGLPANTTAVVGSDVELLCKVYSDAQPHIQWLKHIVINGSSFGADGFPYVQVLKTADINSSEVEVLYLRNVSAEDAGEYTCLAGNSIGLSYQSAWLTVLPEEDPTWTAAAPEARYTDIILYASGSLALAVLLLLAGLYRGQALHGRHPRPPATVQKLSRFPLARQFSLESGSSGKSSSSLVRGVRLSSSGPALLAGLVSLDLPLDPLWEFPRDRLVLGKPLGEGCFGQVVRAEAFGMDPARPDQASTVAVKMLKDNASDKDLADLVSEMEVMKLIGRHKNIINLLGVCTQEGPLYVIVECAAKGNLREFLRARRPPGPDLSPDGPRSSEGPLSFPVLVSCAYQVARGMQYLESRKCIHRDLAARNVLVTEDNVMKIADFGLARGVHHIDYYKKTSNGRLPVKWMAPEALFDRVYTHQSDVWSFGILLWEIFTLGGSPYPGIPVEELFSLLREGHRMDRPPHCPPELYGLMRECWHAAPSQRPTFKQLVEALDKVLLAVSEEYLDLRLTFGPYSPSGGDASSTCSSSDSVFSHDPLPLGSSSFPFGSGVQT

ALK = target: T8, ALK (Homo sapiens, UniProt Q9UM73); test: MaMTH-DS assay, ALK bait with Shc1 prey; type: cell-based
T8 construct: expressed in transfected cells
T8 sequence (Q9UM73 19-1620): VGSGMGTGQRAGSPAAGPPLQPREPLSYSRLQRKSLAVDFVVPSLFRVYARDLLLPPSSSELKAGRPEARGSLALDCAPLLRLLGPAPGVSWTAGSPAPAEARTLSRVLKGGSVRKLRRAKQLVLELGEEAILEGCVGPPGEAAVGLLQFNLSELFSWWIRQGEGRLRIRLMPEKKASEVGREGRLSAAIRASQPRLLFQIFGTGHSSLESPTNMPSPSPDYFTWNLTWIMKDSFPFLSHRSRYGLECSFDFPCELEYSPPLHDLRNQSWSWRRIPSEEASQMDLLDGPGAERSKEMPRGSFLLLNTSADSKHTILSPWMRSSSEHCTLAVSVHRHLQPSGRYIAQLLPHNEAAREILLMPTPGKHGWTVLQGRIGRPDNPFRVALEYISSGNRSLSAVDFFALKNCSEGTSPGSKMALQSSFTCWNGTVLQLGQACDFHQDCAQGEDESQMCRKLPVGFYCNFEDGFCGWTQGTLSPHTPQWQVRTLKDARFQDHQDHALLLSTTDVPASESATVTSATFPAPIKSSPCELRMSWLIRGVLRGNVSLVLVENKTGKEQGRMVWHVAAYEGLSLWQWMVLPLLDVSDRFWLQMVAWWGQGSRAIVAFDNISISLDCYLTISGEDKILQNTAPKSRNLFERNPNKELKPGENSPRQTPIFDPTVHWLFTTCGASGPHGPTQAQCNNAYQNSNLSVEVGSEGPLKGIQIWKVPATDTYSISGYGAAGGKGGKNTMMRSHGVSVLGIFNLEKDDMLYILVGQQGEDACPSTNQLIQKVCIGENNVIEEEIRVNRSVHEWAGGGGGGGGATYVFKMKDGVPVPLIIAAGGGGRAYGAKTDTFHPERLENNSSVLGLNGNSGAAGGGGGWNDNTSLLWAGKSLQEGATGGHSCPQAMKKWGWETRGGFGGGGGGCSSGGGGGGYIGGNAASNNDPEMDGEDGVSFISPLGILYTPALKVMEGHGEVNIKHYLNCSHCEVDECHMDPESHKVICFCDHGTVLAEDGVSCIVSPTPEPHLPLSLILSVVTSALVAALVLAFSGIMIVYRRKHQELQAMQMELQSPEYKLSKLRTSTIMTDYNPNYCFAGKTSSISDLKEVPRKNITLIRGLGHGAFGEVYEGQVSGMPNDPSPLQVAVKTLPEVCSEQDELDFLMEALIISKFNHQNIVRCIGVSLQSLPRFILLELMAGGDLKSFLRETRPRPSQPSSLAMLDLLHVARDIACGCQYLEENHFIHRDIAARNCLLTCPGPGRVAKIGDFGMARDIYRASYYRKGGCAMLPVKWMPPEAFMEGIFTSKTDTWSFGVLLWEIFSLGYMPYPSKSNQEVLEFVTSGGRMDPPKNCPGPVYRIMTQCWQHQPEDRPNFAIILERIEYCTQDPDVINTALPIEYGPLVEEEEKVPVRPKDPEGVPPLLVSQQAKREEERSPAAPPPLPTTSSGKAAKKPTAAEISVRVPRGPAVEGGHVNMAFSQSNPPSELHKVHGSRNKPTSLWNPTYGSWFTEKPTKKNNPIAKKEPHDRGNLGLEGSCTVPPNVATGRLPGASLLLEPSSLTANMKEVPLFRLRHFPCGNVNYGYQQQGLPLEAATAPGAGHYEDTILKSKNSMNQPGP

[12] = tested on: reporter cells expressing FGFR4 bait; test: Viability of reporter cells expressing FGFR4 bait; type: cell-based
Method: as §1

SMILES: C[C@@H](Oc1cc(-c2cnn(C3CCNCC3)c2)cnc1N)c1c(Cl)ccc(F)c1Cl [Crizotinib]
reporter cell viability [1]: not due to a loss in cell viability

SMILES: C=CC(=O)Nc1cc(Nc2nccc(-c3cn(C)c4ccccc34)n2)c(OC)cc1N(C)CCN(C)C [Osimertinib]
cell viability in combination with anti-EGFR antibody [2]: does not cause enhanced reduction
cell viability in combination with anti-EGFR antibody ([2]; listed as AZD9291): no such enhancement was evident
viability of PC9 organoids [3]: not observed
cell viability in combination with anti-EGFR antibody [4]: does not cause enhanced reduction
cell viability in combination with anti-EGFR antibody ([4]; listed as AZD9291): no such enhancement was evident
caspase 3 and 7 activity [5]: not observed

Average Percent (EGFR-WT): 129.3%
effect on kinase activity (EGFR double mutants): inhibits the kinase activity
effect on kinase activity (wild-type EGFR): no significant effect
Average Percent (EGFR-L858R-T790M-C797S): 10.5%
effect on kinase activity (EGFR ex19del/T790M/C797S): strongly inhibited
SMILES: CO[C@@H]1[C@H](N(C)C(=O)c2ccccc2)C[C@H]2O[C@]1(C)n1c3ccccc3c3c4c(c5c6ccccc6n2c5c31)C(=O)NC4 [Midostaurin, N-[(9S,10R,11R,13R)-2,3,10,11,12,13-hexahydro-10-methoxy-9-methyl-1-oxo-9,13-epoxy-1H,9H-diindolo[1,2,3-gh:3′,2′,1′-lm]pyrrolo[3,4-j][1,7]benzodiazonin-11-yl]-N-methylbenzamide]
cell viability ([2]; compound alone, 72 hours): robust, dose-dependent reduction
cell viability in combination with anti-EGFR antibody [2]: Enhanced effect
caspase 3 and 7 activity (CFBE cells): not observed
phosphorylation and/or expression of EGFR and downstream signaling molecules [6]: inhibitory effect
phosphorylation and/or expression of EGFR and downstream signalling molecules [7]: strongest response
viability of PC9 organoids [3]: dose-dependent reduction
cell viability ([4]; compound alone, 72 hours): robust, dose-dependent reduction
cell viability in combination with anti-EGFR antibody [4]: Enhanced effect
cell viability in combination with compound 5213777 [8]: increased effect
cell viability in combination with Panitumumab [8]: Enhanced effects
phosphorylation and/or expression of EGFR and downstream signalling molecules [9]: strongest response
caspase 3 and 7 activity [5]: dose-dependent activation

SMILES: COc1cc(N2CCC(N3CCN(C)CC3)CC2)ccc1Nc1ncc(Cl)c(Nc2ccccc2P(C)(C)=O)n1 [Brigatinib]
reporter cell viability [10]: unaffected

WT > 50% Inhibition (EGFR-WT): YES
Average Percent (EGFR-WT): 6.2%
Average Percent (EGFR-L858R-T790M-C797S): 0.9%
SMILES: O=c1c(Cl)c(Cl)cnn1Cc1ccccc1 [Compound 5357830]

SMILES: COc1cc2c(Oc3ccc(NC(=O)C4(C(=O)Nc5ccc(F)cc5)CC4)cc3F)ccnc2cc1OCCCN1CCOCC1 [Foretinib]
MaMTH-DS reporter activity (AXL): strongly reduced, in a dose-dependent manner
reporter cell viability [11]: unaffected

WT > 50% Inhibition (EGFR-WT): YES
Average Percent (EGFR-WT): 21.5%
Average Percent (EGFR-L858R-T790M-C797S): 11.7%
SMILES: CC1CC(Nc2ccccc2)c2ccccc2N1C(=O)c1cccs1 (stereo not drawn) [Compound 5304079]

interaction / complex formation with Shc1 (MaMTH, words) (EGFR-WT): not
interaction / complex formation with Shc1 (MaMTH, words) (EGFR L858R/T790M): inhibited complex formation
effect on kinase activity (EGFR ex19del-T790M): preferentially inhibits
effect on kinase activity (EGFR ex19del/T790M/C797S): most robust inhibition
SMILES: CCc1nc(C(N)=O)c(Nc2ccc(N3CCC(N4CCN(C)CC4)CC3)c(OC)c2)nc1NC1CCOCC1 [Gilteritinib, 6-ethyl-3-[3-methoxy-4-[4-(4-methylpiperazin-1-yl)piperidin-1-yl]anilino]-5-(oxan-4-ylamino)pyrazine-2-carboxamide]
phosphorylation and/or expression of EGFR and downstream signaling molecules [6]: inhibits EGFR activation and downstream signaling
viability of PC9 organoids [3]: dose-dependent reduction
cell viability in combination with compound 5213777 [8]: increased effect
cell viability in combination with Panitumumab [8]: significantly enhanced

interaction / complex formation with Shc1 (MaMTH, words) (EGFR-WT): not
Average Percent (EGFR-WT): 105.3%
MaMTH-DS interaction with Shc1 (MET): not
effect on kinase activity (wild-type EGFR): no kinase inhibitory activity
MaMTH-DS reporter activity (AXL): not
MaMTH-DS reporter activity (FGFR4): not
Average Percent (EGFR-L858R-T790M-C797S): 27.8%
MaMTH-DS reporter activity (ALK): not
SMILES: CCN(CC)c1ccc2cc(-c3nc4ccccc4o3)c(=O)oc2c1 [Compound 5213777, 3-(1,3-benzoxazol-2-yl)-7-(diethylamino)-2H-chromen-2-one]
effect on kinase activity (EGFR ex19del/T790M/C797S): no kinase inhibitory activity; also recorded: does not inhibit the kinase activity

SMILES: C/C(=C\c1ccc(Cl)cc1)[N+](=O)[O-] [Compound 5238658]
WT > 50% Inhibition (EGFR-WT): YES
Average Percent (EGFR-WT): 0.9%
Average Percent (EGFR-L858R-T790M-C797S): 0.2%

MaMTH-DS interaction with Shc1 (MET): not
MaMTH-DS reporter activity (AXL): not
MaMTH-DS reporter activity (FGFR4): not
SMILES: C#Cc1cccc(Nc2ncnc3cc(OCCOC)c(OCCOC)cc23)c1 [Erlotinib]

SMILES: C=CC(=O)Nc1cccc(C)c1Nc1ncc2cc(-c3c(Cl)c(OC)cc(OC)c3Cl)ccc2n1 [BLU9931]
reporter cell viability [12]: no effect
